The term IC50 denotes the concentration that gives 50% inhibition. The inhibition is the percentage by which the read-out fell short of the control. Broadly, the MIC is the lowest concentration that inhibits growth of the organism.

Results on 23 molecules are retold here after ChEMBL document CHEMBL5241120, “Insights into the medicinal chemistry of heterocycles integrated with a pyrazolo[1,5-a]pyrimidine scaffold” (RSC Med Chem, 2022).

Data set [1] concerns the target T1, Androgen receptor (Homo sapiens, UniProt P10275).
T1 sequence (P10275 whole entry): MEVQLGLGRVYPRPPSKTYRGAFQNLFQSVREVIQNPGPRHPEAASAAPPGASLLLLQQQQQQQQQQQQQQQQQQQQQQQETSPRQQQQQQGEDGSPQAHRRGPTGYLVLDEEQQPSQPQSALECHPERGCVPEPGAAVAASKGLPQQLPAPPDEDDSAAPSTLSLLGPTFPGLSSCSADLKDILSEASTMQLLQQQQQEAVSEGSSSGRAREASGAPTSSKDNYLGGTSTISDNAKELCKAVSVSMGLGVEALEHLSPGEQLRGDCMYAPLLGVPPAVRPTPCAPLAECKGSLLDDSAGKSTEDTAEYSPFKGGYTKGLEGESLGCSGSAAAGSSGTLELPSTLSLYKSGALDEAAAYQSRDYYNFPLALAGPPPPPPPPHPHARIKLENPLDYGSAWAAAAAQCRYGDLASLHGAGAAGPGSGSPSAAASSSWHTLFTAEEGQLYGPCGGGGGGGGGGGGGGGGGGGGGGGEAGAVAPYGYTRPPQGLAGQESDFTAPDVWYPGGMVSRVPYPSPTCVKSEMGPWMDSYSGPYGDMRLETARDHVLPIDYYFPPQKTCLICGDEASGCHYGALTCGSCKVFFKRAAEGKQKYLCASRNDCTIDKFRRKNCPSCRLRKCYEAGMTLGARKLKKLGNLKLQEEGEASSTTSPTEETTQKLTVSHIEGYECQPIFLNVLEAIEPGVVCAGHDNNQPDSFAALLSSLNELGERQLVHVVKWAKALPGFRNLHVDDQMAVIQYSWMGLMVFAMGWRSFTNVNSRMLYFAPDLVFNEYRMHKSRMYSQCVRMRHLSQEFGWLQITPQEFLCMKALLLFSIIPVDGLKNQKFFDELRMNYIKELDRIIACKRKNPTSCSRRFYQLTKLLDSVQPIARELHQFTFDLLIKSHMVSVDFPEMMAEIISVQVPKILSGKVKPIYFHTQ
Briefly: Antagonist activity at androgen receptor (unknown origin).

The test system of data set [2] is Rattus norvegicus. Briefly: Antiinflammatory activity in rat assessed as inhibition of carrageenan induced paw edema at 50 mg/kg. Format: functional. Also on record: scale not given: the % may be the effect or the level left. (Carrageenan injected into the paw causes an acute inflammation.)
Data set [3] is described as follows: Inhibition of soybean 15-LOX. Also on record: species or system Glycine max.
For data set [4], the target named is T2, Prostaglandin G/H synthase 1 (Ovis aries, UniProt P05979).
T2 sequence (P05979 whole entry): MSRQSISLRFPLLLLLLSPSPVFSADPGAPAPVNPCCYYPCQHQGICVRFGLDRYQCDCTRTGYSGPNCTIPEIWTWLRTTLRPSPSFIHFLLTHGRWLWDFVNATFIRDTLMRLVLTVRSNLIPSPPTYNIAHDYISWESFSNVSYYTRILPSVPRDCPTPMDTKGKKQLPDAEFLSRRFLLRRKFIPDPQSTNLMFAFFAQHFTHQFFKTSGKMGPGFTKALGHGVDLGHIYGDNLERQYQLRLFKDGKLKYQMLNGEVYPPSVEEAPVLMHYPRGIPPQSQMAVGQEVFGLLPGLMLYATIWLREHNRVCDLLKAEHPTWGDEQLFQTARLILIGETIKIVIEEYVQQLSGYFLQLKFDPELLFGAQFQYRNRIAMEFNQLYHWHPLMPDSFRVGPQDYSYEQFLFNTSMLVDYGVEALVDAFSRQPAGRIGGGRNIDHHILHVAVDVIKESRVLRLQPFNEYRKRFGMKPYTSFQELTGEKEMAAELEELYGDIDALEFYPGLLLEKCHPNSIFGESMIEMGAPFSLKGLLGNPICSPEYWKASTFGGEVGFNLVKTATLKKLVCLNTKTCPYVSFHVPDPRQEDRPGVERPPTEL
Briefly: Inhibition of ovine COX-1.

For data set [5], the target named is T3, liver carboxylesterase (CES) (Sus scrofa, UniProt Q29550).
T3 sequence (Q29550 whole entry): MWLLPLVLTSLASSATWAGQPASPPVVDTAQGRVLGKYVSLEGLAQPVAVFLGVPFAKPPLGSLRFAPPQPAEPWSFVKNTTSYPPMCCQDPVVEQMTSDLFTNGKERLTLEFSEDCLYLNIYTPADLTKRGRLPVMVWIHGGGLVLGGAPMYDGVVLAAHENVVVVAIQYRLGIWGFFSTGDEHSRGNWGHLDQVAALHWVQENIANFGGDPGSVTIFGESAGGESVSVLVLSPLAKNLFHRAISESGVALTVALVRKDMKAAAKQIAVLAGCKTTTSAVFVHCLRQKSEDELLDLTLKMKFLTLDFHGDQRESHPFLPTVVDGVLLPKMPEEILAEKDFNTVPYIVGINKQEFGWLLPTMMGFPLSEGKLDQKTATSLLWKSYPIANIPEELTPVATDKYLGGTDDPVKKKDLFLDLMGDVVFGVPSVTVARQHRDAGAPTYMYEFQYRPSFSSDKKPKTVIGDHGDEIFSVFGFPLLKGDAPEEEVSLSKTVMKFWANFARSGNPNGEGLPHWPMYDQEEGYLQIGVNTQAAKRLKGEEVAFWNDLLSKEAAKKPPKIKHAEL
Nature of the data set: Inhibition of pig liver CES at 20 uM relative to control. Format: tissue-based.

The test system of data set [6] is Pseudomonas aeruginosa. Briefly: Antibacterial activity against Pseudomonas aeruginosa assessed as zone of inhibition. Format: functional.
Data set [7] relates to HepG2. Nature of the data set: Cytotoxicity against human HepG2 cells by MTT assay. Format: functional, cell-based. For orientation: Formazan colour is commonly taken as a measure of viable cells.
Data set [8] deals with MCF7. Nature of the data set: Cytotoxicity against human MCF7 cells by MTT assay. Format: functional, cell-based.
Data set [9] relates to MCF7. Briefly: Cytotoxicity against human MCF7 cells by SRB assay. Format: functional, cell-based. In general terms: The SRB assay estimates cell density from bound dye.
The subject of data set [10] is Staphylococcus aureus. Nature of the data set: Antibacterial activity against Staphylococcus aureus assessed as zone of inhibition. Format: functional.
Data set [11] has as its system Bacillus subtilis. Briefly: Antibacterial activity against Bacillus subtilis assessed as zone of inhibition. Format: functional.
In data set [12] the test system is Escherichia coli. Nature of the data set: Antibacterial activity against Escherichia coli assessed as zone of inhibition. Format: functional.
In data set [13] the test system is Salmonella enterica. Briefly: Antibacterial activity against Salmonella enterica assessed as zone of inhibition. Format: functional.
The test system of data set [14] is Staphylococcus aureus. Briefly: Antibacterial activity against Staphylococcus aureus assessed as zone of inhibition at 5 mg/ml. The conditions noted are these: read-out: IZ. Format: functional.
For data set [15], the system named is Rattus norvegicus. Nature of the data set: Analgesic activity in Sprague-Dawley rat at 15 mg/kg after 2 hrs by hot plate test. Format: functional.
Data set [16] in a line: Antioxidant activity assessed as ABTS radical scavenging activity. Format: functional.
In data set [17] the test system is Salmonella typhimurium. Briefly: Antibacterial activity against Salmonella typhimurium assessed as zone of inhibition. Format: functional, Salmonella enterica subsp. enterica serovar Typhimurium.
In data set [18] the test system is Aspergillus niger. Briefly: Antifungal activity against Aspergillus niger assessed as zone of inhibition. Format: functional.
The subject of data set [19] is CHO-K1. Nature of the data set: Cytotoxicity against CHO-K1 cells by MTT assay. Format: toxicity, cell-based, Cricetulus griseus. Also on record: concentration or dose not given beside the values. The conditions noted are these: chinese hamster.
Data set [20] deals with Bacillus subtilis. Briefly: Antibacterial activity against Bacillus subtilis. Format: functional.
The subject of data set [21] is Staphylococcus aureus. Nature of the data set: Antibacterial activity against Staphylococcus aureus. Format: functional.
Data set [22] deals with Pseudomonas aeruginosa. Nature of the data set: Antibacterial activity against Pseudomonas aeruginosa. Format: functional.
Data set [23] has as its system Escherichia coli. Nature of the data set: Antibacterial activity against Escherichia coli. Format: functional.
Data set [24] deals with Aspergillus niger. Nature of the data set: Antifungal activity against Aspergillus niger. Format: functional.

SMILES strings stand for the structures. ≈ marks a conversion by molar mass, not a printed value.

In data set [1], `O=C(O)c1nn2c(c1Cl)NC(c1ccccc1)CC2C(F)(F)F` (stereo not given) had an IC50 of 487 µM.

With `COc1ccnc(Nc2nn3c(C)cc(C)nc3c2C#N)c1`, in [2], the Activity is reported as 46%. The IC50 amounted to 5.6 µM in [3] and 8.5 µM in [4].

For `O=[N+]([O-])c1ccc(OP(=O)(O)Oc2ccc([N+](=O)[O-])cc2)cc1`, testing at 20 µM in data set [5] gave an inhibition of 1.8%.

In the case of `COc1ccc(-c2ccnc3c(C(N)=O)c(Nc4ccccc4)nn23)cc1`, in [6], the “inhibition zone (IZ)” value stood at 9 mm. Further, the IC50 in [7] came to 79.8 µM; in data set [8], 63.4 µM; in data set [9] it was 63.1 µM.

Consider `CC1(C)S[C@@H]2[C@H](NC(=O)[C@H](N)c3ccccc3)C(=O)N2[C@H]1C(=O)O` [AMPICILLIN], for which the “inhibition zone (IZ)” value was found to be 21 mm in data set [10], 26 mm in data set [11], 25 mm in data set [12] and 23 mm in [13].

On to `Nc1nc2c(/N=N/c3ccc(C(F)(F)F)cc3)c(N)nn2c(N)c1/N=N/c1ccc(F)cc1`, for which, in data set [14], the zone of inhibition at 5000 µg/mL was found to be 10 mm.

On to `Cc1ccc(N/N=C2\C(=O)n3nc(-c4ccccc4)cc3N=C2C(F)(F)F)cc1`, for which the Activity in [15] was 47.4%; in [16] it was 0.19 µM. In data set [5], this molecule registered an inhibition at 20 µM of 2.91%.

Turning to `Nc1nn2c(-c3ccc(S(=O)(=O)c4ccccc4)cc3)ccnc2c1/N=N/c1ccccc1[N+](=O)[O-]`, the “inhibition zone (IZ)” value in data set [17] is reported as 26.6 mm; in [12], 25.5 mm; in data set [18], 26.3 mm.

Turning to `Cc1c(C)c2c(c(C)c1O)CCC(C)(C(=O)O)O2` (stereo not given), the Activity in data set [16] amounted to 1 µM.

`CCOc1cc(C)nc2c(C#N)c(Nc3cc(OC)ccn3)nn12`: the Activity in data set [2] came to 46%. Further, the IC50 in data set [3] worked out at 8.4 µM; in data set [4] it was 7.9 µM.

Consider `O=C(Nc1ccccc1)c1cnn2c(-c3ccncc3)ccnc12`, for which the “inhibition zone (IZ)” value in data set [12] is on record as 12 mm; in data set [13] it was 23 mm.

`COc1ccc(C2CC(C(F)(F)F)n3nc(-c4ccc(C(=O)O)cc4)cc3N2)cc1OC` (stereo not given) yielded an IC50 in data set [1] of 23.4 µM.

Turning to `CC1(C2CC(C(F)(F)F)n3nc(C(=O)O)cc3N2)CC1` (stereo not given), the IC50 in data set [1] is 214 µM.

`Cc1c(NC(=O)c2cnn3cc(-c4ccccc4)cnc23)c(=O)n(-c2ccccc2)n1C` showed an Activity in data set [19] of 97.1%.

`CCOP(=O)(OCC)C1C(C(=O)c2ccccc2O)=CN=C2CC(O)=NN21` (stereo not given) gave an IC50 in [9] of 21.9 µg/mL.

As for `Nc1nn2c(-c3ccc(S(=O)(=O)c4ccccc4)cc3)ccnc2c1/N=N/c1cccc(Cl)c1`, the “inhibition zone (IZ)” value in data set [17] is on record as 26.3 mm; in data set [10], 23.4 mm; in [18], 25.1 mm.

With `COC(=O)c1cnc2c(C(=O)Nc3c(C)n(C)n(-c4ccccc4)c3=O)cnn2c1C`, in [19], the Activity worked out at 49.24%.

As for `O=C(C1=CN=C2CC(O)=NN2C1P(=O)(OCCCl)OCCCl)c1ccccc1O` (stereo not given), in [9], the IC50 is 39.7 µg/mL.

As for `NC(=O)c1c(Nc2ccccc2)nn2c(-c3ccccc3)ccnc12`, the MIC in data set [20] amounted to 3.9 µg/mL (≈ 11.8 µM); in [21], 7.81 µg/mL (≈ 23.7 µM); in data set [22], 7.81 µg/mL (≈ 23.7 µM); in data set [23], 15.6 µg/mL (≈ 47.4 µM); in data set [24] it was 15.6 µg/mL (≈ 47.4 µM). In addition, the “inhibition zone (IZ)” value is recorded as 10 mm in [10], 12 mm in data set [11], 9 mm in data set [6] and 7 mm in [12].

In [19], `Cc1c(NC(=O)c2cnn3c(N)c(-c4ccccc4)cnc23)c(=O)n(-c2ccccc2)n1C` yielded an Activity of 45.75%.

As for `CCOc1cc(N)n2nc(Nc3cc(OC)ccn3)c(C#N)c2n1`, the Activity in data set [2] was 46%. In addition, the IC50 turned out to be 8.2 µM in data set [3] and 8.5 µM in data set [4].

In [1], `Cc1ccc(C2CC(C(F)(F)F)n3nc(C(N)=O)cc3N2)cc1` (stereo not given) showed an IC50 of 45.8 µM.

Consider `CC/C(=C(\c1ccccc1)c1ccc(OCCN(C)C)cc1)c1ccccc1` [TAMOXIFEN], for which it took 8.5 µg/mL to reach half-maximal inhibition in data set [9] (IC50).
